Experimental data: US20260027073A1, “USE OF SMALL-MOLECULE COMPOUND HAVING NAPHTHYLAMINE STRUCTURE” (HANGZHOU PHECDAMED CO., LTD., priority 2023, published 2026)

Assays:
[1] = test system: DSS-induced enteritis mice; test: DSS-induced inflammatory bowel disease; assay type: in vivo, C57BL/6J mice
Procedure: Eight-week-old C57BL/6J male mice were randomly divided into […], of which, G1 blank control group (8 mice), G2 positive control group (intraperitoneal injection of infliximab 10 mg/kg, 8 mice), G3 group (intraperitoneal injection of small-molecule drug TJ01-013, 5 mg/kg, 12 mice), G4 group (intraperitoneal injection of small-molecule drug TJ01-013, 10 mg/kg, 12 mice) and G5 group (intraperitoneal injection of small-molecule drug TJ01-013, 10 mg/kg, 12 mice). The configuration method of intraperitoneal injection drug was 5% DMSO+30% PEG400+65% ddH2O, the small-molecule compound was first dissolved in 5% DMSO, and then 30% PEG400 and 65% H2O were added sequentially, after 2 weeks of acclimatization, 2% DSS solution was given as drinking water for 6 days, and then was replaced with normal drinking water. During the experiment, the mice were injected intraperitoneally with the corresponding concentration of small-molecule compound every day; and the mice were recorded daily for weight change, fecal shape and blood in stool. During the experiment, the fecal shape and blood in stool were scored, and the disease activity index was calculated on day 3th, day 6th, and day 8th.
At the end of the experiment, after the mice were put to death with CO2, all the intestinal segments from the cecum to the anus were cut, photographed and measured for length.
The middle about 1 cm intestinal segment was taken into the embedding box and immersed in 4% paraformaldehyde, fixed and immersed for 72 h to prepare pathological specimens for HE staining, and the histopathological results were scored; tissue embedding, sectioning and HE staining were performed as follows:
The remaining intestinal segments were washed with pre-cooled saline using a 50 mL syringe, and after washing out the remaining liquid in the intestinal lumen, the tissues were cut into pieces with small scissors and mixed evenly, wrapped in tin foil and then rapidly frozen in liquid nitrogen, and all the operations were controlled to be completed within 10 minutes after the death of the mice. The tissues were lysed by Trizol, and RNA was extracted according to the instructions of Trizol; the obtained RNA was subjected to reverse transcription reaction with the Reverse Transcription Kit from ABI company; SYBR Green method was used to detect the inflammatory factors such as Cxcl1, G-CSF, IL6, IL-1β, S100A8, and TNF-α in the reversed transcription products, and the housekeeping gene Actin was used as an internal reference, and calculated and analyzed by 2-ΔΔCt method.

[2] = test system: chronic obstructive pulmonary disease model rats; test: Chronic obstructive pulmonary disease (LPS plus passive smoking); assay type: in vivo, SD rats; details: gavage 3 weeks, FIG. 62
Procedure: After 5-week-old male SD rats were adaptively fed for 1 week, they were randomly grouped according to their body weights into five groups, i.e., a normal control group (normal, n=10), a model control group (Control, n=10), a TJ01-013 7.5 mg/kg treatment group (7.5 mg/kg, n=10), a TJ01-013 15 mg/kg treatment group (15 mg/kg, n=10), TJ01-013 30 mg/kg treatment group (30 mg/kg, n=10). The model was replicated using the intra-airway injection of lipopolysaccharide method combined with passive smoking method, which is a recognized model for chronic obstructive pulmonary disease. […] From the second day of modeling, the normal control group and the model control group were treated with vehicle (0.5% CMC-Na) by gavage, and the TJ01-013 treatment group was treated with the corresponding concentration of TJ01-013 in a volume of 10 ml/kg for a total of 3 weeks, and blood was collected from the posterior bulbous vein of the rat after administration, and the blood was centrifuged at 6,000 rpm for 10 min after standing still at room temperature for 30 min, then the upper layer of serum was taken, and the levels of TNFα and CXCL1 in serum were detected by enzyme-linked immunosorbent assay (ELISA).

MRL/lpr mice = test: Lupus nephritis in MRL/lpr mice; assay type: in vivo
Procedure: The 10-week-old female MRL/lpr mice were fed in an SPF environment with a light-dark cycle of 12 h and the temperature maintained at 24-26° C. The mice were randomly divided into three groups according to their body weights, namely, the model group (Control, n=8, 0.5% CMC-Na by oral gavage), TJ01-013 10 mg/kg treatment group (10 mg/kg, n=8, 10 mg/kg TJ01-013 by oral gavage), TJ01-013 30 mg/kg treatment group (30 mg/kg, n=8, 30 mg/kg TJ01-013 by oral gavage), the animals were adaptively fed for one week, and were administered every day starting from 11th week, and the animals were monitored for the concentration of randomized urinary proteins and urinary creatinine of the mice in each group every 2 weeks starting from week 11, the mouse urine protein to creatinine concentration ratio (uPCR) was calculated. The animals were administered for a total of 10 weeks, and blood was collected from the orbits at the end of administration and serum was collected. Serum creatinine, urea nitrogen, serum ANA and anti-dsDNA concentrations were detected.
Urine protein and urinary creatinine levels were detected by utilizing Caumas Brilliant Blue staining.
Serum creatinine and urea nitrogen were detected by biochemical analyzer.
Serum ANA and anti-dsDNA levels were detected by ELISA.
Kidney tissue was placed in a homogenizer and minced into pieces thoroughly with clean scissors; 400 μl of lysate was added to the homogenizer, homogenized and then placed on ice, and the grinding was repeated several times on ice until the kidney tissue was ground as thoroughly as possible; after 30 min of lysis, the lysate was transferred to a 1.5 ml centrifuge tube with a pipette, and then centrifuged for 10 min at 12,000 rpm under the condition of 4° C., and the supernatant was taken and stored at −20° C. Inflammatory factors TNFα and IL-6 in kidney tissue proteins were detected using ELISA.

[3] = vs model control group, FIG. 23
[4] = vs model control group, FIG. 24

## O=C(O)C[S+]([O-])c1cc(NS(=O)(=O)c2ccc(Br)cc2)c2ccccc2c1O (stereo not drawn) [I-1]
[1]; FIG. 23
  Histopathological scores: significantly reduced the pathological changes
[1]; intraperitoneal injection during DSS induction, FIG. 20
  weight loss of the mice: slowing down of the weight loss
[1]; intraperitoneal injection during DSS induction, FIG. 21
  disease activity index: reduction of the disease activity index
[1]; vs model control group, FIG. 22
  colorectal length: significantly greater
[1]; [3]
  colorectal tissue morphology (HE staining): more intact
  inflammatory infiltration of colorectal tissue: reduced
[1]; [4]
  Cxcl1 expression level in colorectal tissue (q-PCR): significantly reduced
  G-CSF expression level in colorectal tissue (q-PCR): significantly reduced
  IL6 expression level in colorectal tissue (q-PCR): significantly reduced
  IL-1β expression level in colorectal tissue (q-PCR): significantly reduced
  S100A8 expression level in colorectal tissue (q-PCR): significantly reduced
  TNF-α expression level in colorectal tissue (q-PCR): significantly reduced
[2]; 15 mg/kg and 30 mg/kg
  serum CXCL1 level: reduce
[2]; 30 mg/kg
  serum TNFα level: reduced the serum TNFα level, and the difference was significant
MRL/lpr mice; 10 weeks of administration, 10 and 30 mg/kg groups, FIG. 74
  urine protein to creatinine concentration ratio (uPCR): significantly lower
MRL/lpr mice; vs model group, FIG. 75
  serum creatinine level: significantly decreased
  serum urea nitrogen level: significantly decreased
MRL/lpr mice; vs model group, FIG. 76
  serum ANA level: significantly decreased
MRL/lpr mice; vs model group, FIG. 77
  serum dsDNA level: significantly decreased
MRL/lpr mice; vs model group, FIG. 78
  IL-6 level in kidney tissues: significantly reduced
  TNFα level in kidney tissues: significantly reduced
